Assay results reported in patent publication EP0437336B1, “Biophosphoryl hydrazines and their use as pesticides” (priority 1990, dated 1991).
≈ marks a conversion by molar mass, not a printed value. Where two headings read alike, the source gives them in different places.

Legend:
Green Peach Aphid [1] = experiment: Biological Method D: Foliar Insecticidal Activity Test, aphid test; format: in vivo, Myzus persicae; design: key: I = inactive at concentration listed
Experimental: (§1) Biological Method D: Foliar Insecticidal Activity Test
(§2) In evaluating the foliar insecticidal activity of the compounds of this invention against insects and mites, the following test procedures were employed.
(§3) Not all compounds were tested at each of the several concentrations stated above. Test concentrations of a compound were selected as those most likely to differentiate dose response of a particular compound toward a particular test insect.
(§4) Initial evaluations were made on one or more of the following pests:
(§5) For the aphid test, infested broccoli (Brassica oleracea italica var. DiCicco) leaves containing about 50 aphids were placed in a Petri dish lid on a moistened piece of cotton. The leaves were then sprayed to thorough wetness with the test solution using a rotating turntable, held for twenty-four hours and then the percentage killed was determined.
(§6) The mortalities obtained in this manner were plotted on logarithmic probability paper.
(§7) The rotating turntable consists of a fixed, continuously operating spray nozzle under which targets are rotated at a fixed speed and distance. If the target is a Petri dish (such as for the bean beetle, armyworm, mite, or aphid tests), the distance from the nozzle is 38.1 cm (15 inches). If the target is a Mason jar (such as for the boll weevil test), the distance from the nozzle is 17.8 cm (7 inches). The nozzle is located 8 inches from the rotating shaft. The targets on individual platforms revolve around the shaft at 1 revolution per 20 seconds but only a brief portion of this time occurs in the spray path. Targets pass only once under the nozzle and then are removed to drying hoods.
(§8) The nozzle used is a 1/4 JCO Spraying Systems (Wheaton, Illinois) air atomizing nozzle equipped with a No. 2850 fluid cap and a No. 70 air cap. At the 68.95 x 10³ Pa gauge (10 psig) air pressure used and with liquid siphon feed, 1.89 ℓ/hr [0.5 GPH (gallons per hour)] are delivered in a round spray pattern with a 21 degree spray angle. Targets are misted with spray droplets to the point that the droplets coalesce to form a uniform thin film insufficient to drown test organisms.

Two-Spotted Spider Mite = experiment: Biological Method D: Foliar Insecticidal Activity Test, mite test; format: in vivo, Tetranychus urticae; design: key to LC50 TSM: I = inactive at concentration listed; conditions: for LC50: Tetranychus urticae
Experimental: as §1, §2, §3, §4
as §5, with “mite” for “aphid”, “bean (Phaseolus limensis” for “broccoli (Brassica oleracea italica”, “Woods Prolific) leaf discs [3.18 cm (1.25") in diameter]” for “DiCicco) leaves”, “mites” for “aphids”
as §6, §7, §8

[2] = system: southern corn rootworm, Diabrotica undecimpunctata howardi; experiment: Biological Method A: Corn Rootworm Screening Test (treated non-aggressive soil); conditions: soil concentration giving 90% mortality, 10 days at 27°C
[3] = system: southern corn rootworm, Diabrotica undecimpunctata howardi; conditions: for foliar systemic nonagressive Method B crw % control at 0.56 kg/ha (0.5 lb/acre): percent control relative to infested check, from root damage ratings, 14 days post-spraying
Boll Weevil [4] = experiment: Biological Method D: Foliar Insecticidal Activity Test, boll weevil test; format: in vivo, Anthonomous grandis; design: key: I = inactive at concentration listed
Experimental: as §1, §2, §3, §4
(§9) For the boll weevil test, 10 adult weevils were placed in a 0.24 ℓ (0.5 pint) glass Mason jar containing a small cube of apple. The weevils were confined to the jar by fiberglass screen mesh secured by a screw-type rim cap. The jars were then sprayed with the test solution using a rotating turntable; directing the spray through the mesh into the jar. The percentage killed was determined after forty-eight and ninety six hours.
as §6, §7, §8

Southern Armyworm [5] = experiment: Biological Method D: Foliar Insecticidal Activity Test, Southern Armyworm test; format: in vivo, Spodoptera eridania; design: key: I = inactive at concentration listed
Experimental: as §1, §2, §3, §4
(§10) For the Mexican Bean Beetle and Southern armyworm tests, individual lima bean (Phaseolus limeniss var. Woods' Prolific) leaves were placed on moistened pieces of filter paper in Petri dishes. The leaves were then sprayed with the test solution using a rotating turntable and allowed to dry. The dishes were then infested with 10 third instar larvae of either the Mexican Been Beetle or the Southern Armyworm. The dishes were then covered. Percent mortality was determined for each species and spray concentration at 48 and 96 hours after treatment.
as §6, §7, §8

Mexican Bean Beetle = experiment: Biological Method D: Foliar Insecticidal Activity Test, Mexican Bean Beetle test; format: in vivo, Epilachna varivestis; conditions: Epilachna varivestis
Experimental: as §1, §2, §3, §4, §10, §6, §7, §8

Southern Armyworm [6] = experiment: Biological Method D: Foliar Insecticidal Activity Test, Southern Armyworm test; format: in vivo, Spodoptera eridania; conditions: foliar spray; for AW 48 hrs LC50: 48 hours after treatment; for AW 96 hrs LC50: 96 hours after treatment
Experimental: as §1, §2, §3, §4, §10, §6, §7, §8

Green Peach Aphid [7] = experiment: Biological Method D: Foliar Insecticidal Activity Test, aphid test; format: in vivo, Myzus persicae; conditions: foliar spray; kill after twenty-four hours
Experimental: as §1, §2, §3, §4, §5, §6, §7, §8

[8] = system: southern corn rootworm, Diabrotica undecimpunctata howardi; conditions: at-planting soil application
Boll Weevil [9] = experiment: Biological Method D: Foliar Insecticidal Activity Test, boll weevil test; format: in vivo, Anthonomous grandis; conditions: spray into jar
Experimental: as §1, §2, §3, §4, §9, §6, §7, §8

[10] = Method D foliar test, Two-Spotted Spider Mite
[11] = Method D foliar test, Mexican Bean Beetle, 48 hrs, read-out: LC50 BB 48 hrs.
[12] = Method D foliar test, Mexican Bean Beetle, 96 hrs, read-out: LC50 BB 96 hrs
[13] = Method D foliar test, Two-Spotted Spider Mite, read-out: LC50 TSM
[14] = foliar spray, kill after twenty-four hours
[15] = foliar spray, 48 hours after treatment, read-out: BB 48 hrs. LC50
[16] = foliar spray, 96 hours after treatment, read-out: BB 96 hrs LC50

CCOP(=S)(NNP(=S)(OCC)OC(C)C(F)(F)F)OCC (centres unmarked) [Compound 15]
LC50 GPA (Green Peach Aphid [1]): I | LC50 TSM (Two-Spotted Spider Mite; [10]): I | primary nonagressive Method A crw LC90 [2]: <0.1 ppm | pest or weed control at 560 g/ha ([3]; Diabrotica undecimpunctata, in Zea mays, foliar, 336 h, read-out: foliar systemic nonagressive Method B crw % control at 0.56 kg/ha (0.5 lb/acre)): 54% | LC50 BW 48 hrs (Boll Weevil [4]): I | LC50 BW 96 hrs (Boll Weevil [4]): I | LC50 AW 48 hrs (Southern Armyworm [5]): I | LC50 AW 96 hrs (Southern Armyworm [5]): I | LC50 (Mexican Bean Beetle; [11]): 150 µg/mL (≈ 371 µM) | LC50 (Mexican Bean Beetle; [12]): 62 µg/mL (≈ 153 µM)

CCCOP(=S)(NNP(=S)(OCC)OCC)OCCC [Compound 13, reference compound]
LC50 GPA (Green Peach Aphid [1]): I | LC50 TSM (Two-Spotted Spider Mite; [10]): I | primary nonagressive Method A crw LC90 [2]: <0.1 ppm | foliar systemic nonagressive Method B crw % control at 0.56 kg/ha (0.5 lb/acre) [3]: 46% | LC50 BW 48 hrs (Boll Weevil [4]): I | LC50 BW 96 hrs (Boll Weevil [4]): I | LC50 AW 48 hrs (Southern Armyworm [5]): I | LC50 AW 96 hrs (Southern Armyworm [5]): I | LC50 (Mexican Bean Beetle; [11]): 150 µg/mL (≈ 412 µM) | LC50 (Mexican Bean Beetle; [12]): 52 µg/mL (≈ 143 µM)

CCCCOP(=S)(NNP(=S)(OCC)OCC)OCC (centres unmarked) [Compound 7]
LC50 GPA (Green Peach Aphid [1]): I | LC50 (Two-Spotted Spider Mite; [13]): 150 µg/mL (≈ 412 µM) | primary nonagressive Method A crw LC90 [2]: 0.25 ppm | foliar systemic nonagressive Method B crw % control at 0.56 kg/ha (0.5 lb/acre) [3]: 38% | LC50 BW 48 hrs (Boll Weevil [4]): I | LC50 BW 96 hrs (Boll Weevil [4]): I | LC50 AW 48 hrs (Southern Armyworm [5]): I | LC50 AW 96 hrs (Southern Armyworm [5]): I

CCCOP(=S)(NNP(=S)(OCC)OC(C)C)OCCC (centres unmarked) [Compound 82]
TSM LC50 (Two-Spotted Spider Mite; [14]): I | AW 48 hrs LC50 (Southern Armyworm [6]): I | primary nonagressive Method A crw LC90 [2]: 0.7 ppm | GPA LC50 (Green Peach Aphid [7]): I | secondary aggressive Method C crw LC50 ([8]; rated 17 days post-infestation): 0.95 kg/ha | secondary aggressive Method C crw LC50 ([8]; value in brackets): 0.85 lb/acre | LC50 (Mexican Bean Beetle; [15]): 500 µg/mL (≈ 1320 µM) | LC50 (Mexican Bean Beetle; [16]): 150 µg/mL (≈ 396 µM)

CCCCNP(=S)(NNP(=S)(OCC)OCC)OCC (centres unmarked) [Compound 74]
BW 48 hrs LC50 (Boll Weevil [9]): I | BW 96 hrs LC50 (Boll Weevil [9]): I | TSM LC50 (Two-Spotted Spider Mite; [14]): I | AW 48 hrs LC50 (Southern Armyworm [6]): I | AW 96 hrs LC50 (Southern Armyworm [6]): I | primary nonagressive Method A crw LC90 [2]: 1.1 ppm | GPA LC50 (Green Peach Aphid [7]): I | secondary aggressive Method C crw LC50 ([8]; rated 17 days post-infestation): 1.03 kg/ha | secondary aggressive Method C crw LC50 ([8]; value in brackets): 0.92 lb/acre | LC50 (Mexican Bean Beetle; [15]): 740 µg/mL (≈ 2040 µM) | LC50 (Mexican Bean Beetle; [16]): 380 µg/mL (≈ 1050 µM)

CCCOP(=S)(NNP(=S)(OCC)OCC)OCC (centres unmarked) [Compound 6]
LC50 GPA (Green Peach Aphid [1]): I | LC50 (Two-Spotted Spider Mite; [13]): 150 µg/mL (≈ 428 µM) | primary nonagressive Method A crw LC90 [2]: <0.1 ppm | foliar systemic nonagressive Method B crw % control at 0.56 kg/ha (0.5 lb/acre) [3]: 3% | LC50 BW 48 hrs (Boll Weevil [4]): I | LC50 BW 96 hrs (Boll Weevil [4]): I | LC50 AW 48 hrs (Southern Armyworm [5]): I | LC50 AW 96 hrs (Southern Armyworm [5]): I | LC50 (Mexican Bean Beetle; [11]): 420 µg/mL (≈ 1200 µM)

CCOP(=S)(NNP(=S)(OCC)N(C)CC)OCC (centres unmarked) [Compound 75]
BW 48 hrs LC50 (Boll Weevil [9]): I | BW 96 hrs LC50 (Boll Weevil [9]): I | LC50 (Two-Spotted Spider Mite; 24 h, foliar spray, kill after twenty-four hours, read-out: TSM LC50): 150 µg/mL (≈ 429 µM) | AW 48 hrs LC50 (Southern Armyworm [6]): I | AW 96 hrs LC50 (Southern Armyworm [6]): I | primary nonagressive Method A crw LC90 [2]: 1.1 ppm | GPA LC50 (Green Peach Aphid [7]): I | LC50 (Mexican Bean Beetle; [15]): 500 µg/mL (≈ 1430 µM) | LC50 (Mexican Bean Beetle; [16]): 150 µg/mL (≈ 429 µM)

CCOP(=S)(NNP(=S)(OCC)OC(C)C)OCC (centres unmarked) [Compound 5]
LC50 GPA (Green Peach Aphid [1]): I | LC50 (Two-Spotted Spider Mite; [13]): 150 µg/mL (≈ 428 µM) | primary nonagressive Method A crw LC90 [2]: <0.1 ppm | foliar systemic nonagressive Method B crw % control at 0.56 kg/ha (0.5 lb/acre) [3]: 69% | LC50 BW 48 hrs (Boll Weevil [4]): I | LC50 BW 96 hrs (Boll Weevil [4]): I | LC50 AW 48 hrs (Southern Armyworm [5]): I | LC50 AW 96 hrs (Southern Armyworm [5]): I | LC50 (Mexican Bean Beetle; [11]): 740 µg/mL (≈ 2110 µM)
